From patent publication US9376442B2, “Methylpyrrolopyrimidinecarboxamides” (Takeda GmbH, priority 2009, dated 2016) come the findings set out here.

The target in one experiment is T1, PDE5A1 (Homo sapiens, UniProt O76074).
T1 construct: from tissue; host or cells: human platelets from fresh donor blood (10,000 x g supernatant of sonicated lysate)
The experiment in a line: Inhibition of type 5 phosphodiesterase (PDE5) activity, modified SPA test with human platelet lysate. In kind it is biochemical. Conditions: 0.5 μM cGMP, read-out: PDE5A1 inhibitory values [measured as −log IC50 (mol/l)] (converted). The method, boiled down:
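Enzyme source is lysate from human platelets (10,000 g supernatant). Compound preincubated 5 min at 37° C in Tris pH 7.4 containing 1 μM motapizone and 10 nM of a PDE2 inhibitor. Reaction started with 0.5 μM cGMP ([3H] tracer) and run 15 min; SPA read-out, IC50 by non-linear regression.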

For another experiment, the target named is T2, PDE4B1 (Homo sapiens, UniProt Q07343).
T2 construct: made in house; host or cells: SF21 insect cells (baculovirus; pCRBac vector), 1000 x g supernatant of homogenate
T2 sequence (Q07343 whole entry): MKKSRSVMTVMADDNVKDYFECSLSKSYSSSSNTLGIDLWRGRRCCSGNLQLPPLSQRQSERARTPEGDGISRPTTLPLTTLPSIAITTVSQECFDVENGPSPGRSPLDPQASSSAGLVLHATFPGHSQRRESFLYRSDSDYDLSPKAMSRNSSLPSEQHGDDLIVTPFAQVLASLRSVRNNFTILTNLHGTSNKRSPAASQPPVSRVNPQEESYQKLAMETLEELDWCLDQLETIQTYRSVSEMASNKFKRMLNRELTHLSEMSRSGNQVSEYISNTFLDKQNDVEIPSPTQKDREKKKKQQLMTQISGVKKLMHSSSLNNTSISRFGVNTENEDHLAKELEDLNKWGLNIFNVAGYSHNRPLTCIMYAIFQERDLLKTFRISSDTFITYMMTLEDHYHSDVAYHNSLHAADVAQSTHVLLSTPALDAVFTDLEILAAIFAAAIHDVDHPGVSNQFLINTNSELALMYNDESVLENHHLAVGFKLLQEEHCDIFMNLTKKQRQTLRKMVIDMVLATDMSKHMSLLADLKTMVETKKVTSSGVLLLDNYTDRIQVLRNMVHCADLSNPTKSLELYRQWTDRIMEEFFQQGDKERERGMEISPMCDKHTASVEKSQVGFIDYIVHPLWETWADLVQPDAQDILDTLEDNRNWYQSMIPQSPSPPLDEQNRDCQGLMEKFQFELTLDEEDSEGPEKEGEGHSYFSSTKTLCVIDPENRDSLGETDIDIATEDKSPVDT
Nature of the experiment: Inhibition of type 4 phosphodiesterase (PDE4) activity, modified SPA test with recombinant PDE4B1 expressed in SF21 insect cells. It is filed as biochemical. Conditions: recombinant PDE4B1, 0.5 μM cAMP, read-out: PDE4B1 inhibitory values [measured as −log IC50 (mol/l)] (converted). The method, boiled down:
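Modified [3H]cAMP SPA using 1000×g supernatant of SF21 cells expressing recombinant human PDE4B1, in 20 mM Tris pH 7.4, 0.1 mg/ml BSA, 5 mM Mg2+, 0.5 μM cAMP. After 5 min preincubation at 37 °C, 15 min reaction, stopped with SPA beads plus IBMX; IC50 by non-linear regression.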

Structures are written as SMILES.

Consider `COCC(=O)N[C@H]1CC[C@H](NC(=O)c2c(C)[nH]c3c(-c4cc(C(F)F)ccc4OCC4CC4)ncnc23)C[C@@H]1C` (relative stereo) [Example P191, 4-[2-(Cyclopropylmethoxy)-5-(difluoromethyl)phenyl]-N-{(1S*,3S*,4S*)-4-[(methoxyacetyl)amino]-3-methylcyclohexyl}-6-methyl-5H-pyrrolo[3,2-d]pyrimidine-7-carboxamide], for which the figures for the IC50 on PDE5A1 and at PDE4B1 were below 0.001 µM and below 0.1 µM, respectively.

As to `CC(=O)N1CCC(NC(=O)c2c(C)[nH]c3c(-c4cc(F)ccc4OCC4CC4)ncnc23)CC1` [Example E37, 4-(2-Cyclopropylmethoxy-5-fluoro-phenyl)-6-methyl-5H-pyrrolo[3,2-d]pyrimidine-7-carboxylic acid (1-acetyl-piperidin-4-yl)-amide], the IC50 on PDE5A1 is below 0.001 µM; at PDE4B1, 0.1 to 1 µM.

As for `CCc1ccc(OCC2CC2)c(-c2ncnc3c(C(=O)N[C@@H]4CN(C(=O)COC)C[C@H]4O)c(C)[nH]c23)c1` (relative stereo) [Example E156, 4-[2-(Cyclopropylmethoxy)-5-ethylphenyl]-N-[(3R*,4R*)-4-hydroxy-1-(methoxyacetyl)pyrrolidin-3-yl]-6-methyl-5H-pyrrolo[3,2-d]pyrimidine-7-carboxamide], the IC50 at PDE5A1 is 0.001 to 0.01 µM; at PDE4B1 it was 0.1 to 1 µM.

Consider `COCC(=O)N1CCC(NC(=O)c2c(C)[nH]c3c(-c4cc(C)ccc4OCC4CC4)ncnc23)CC1` [Example E83, 4-[2-(cyclopropylmethoxy)-5-methylphenyl]-N-[1-(methoxyacetyl)piperidin-4-yl]-6-methyl-5H-pyrrolo[3,2-d]pyrimidine-7-carboxamide], for which the IC50 at PDE5A1 was below 0.001 µM; on PDE4B1, below 0.1 µM.

As to `COCC(=O)N1CCC(NC(=O)c2c(C)[nH]c3c(-c4cc(OC)ccc4OCC4CC4)ncnc23)CC1` [Example E68, 4-[2-(Cyclopropylmethoxy)-5-methoxyphenyl]-N-[1-(methoxyacetyl)piperidin-4-yl]-6-methyl-5H-pyrrolo[3,2-d]pyrimidine-7-carboxamide], the IC50 on PDE5A1 is below 0.001 µM; on PDE4B1 it was 0.1 to 1 µM.

For the compound `CC(=O)N[C@H]1CC[C@H](NC(=O)c2c(C)[nH]c3c(-c4cc(C(F)F)ccc4OCC4CC4)ncnc23)[C@@H](C)C1` (relative stereo) [Example P139, N-[(1S*,2S*,4S*)-4-(Acetylamino)-2-methylcyclohexyl]-4-[2-(cyclopropylmethoxy)-5-(difluoromethyl)phenyl]-6-methyl-5H-pyrrolo[3,2-d]pyrimidine-7-carboxamide], the IC50 at PDE5A1 was below 0.001 µM; on PDE4B1 it was below 0.1 µM.

As to `CCC(=O)N1CCC(NC(=O)c2c(C)[nH]c3c(-c4cc(OC)ccc4OCC4CC4)ncnc23)CC1` [Example E67, 4-[2-(Cyclopropylmethoxy)-5-methoxyphenyl]-6-methyl-N-(1-propionylpiperidin-4-yl)-5H-pyrrolo[3,2-d]pyrimidine-7-carboxamide], the figures for the IC50 on PDE5A1 and at PDE4B1 were below 0.001 µM and 0.1 to 1 µM, respectively.

For `CCc1ccc(OCC2CC2)c(-c2ncnc3c(C(=O)NC4CCN(C(C)=O)CC4)c(C)[nH]c23)c1` [Example E145, N-(1-Acetylpiperidin-4-yl)-4-[2-(cyclopropylmethoxy)-5-ethylphenyl]-6-methyl-5H-pyrrolo[3,2-d]pyrimidine-7-carboxamide], the IC50 at PDE5A1 was below 0.001 µM; on PDE4B1 it was 0.1 to 1 µM.

Regarding `CCC(=O)N[C@H]1CC[C@@H](NC(=O)c2c(C)[nH]c3c(-c4cc(OC)ccc4OCC4CC4)ncnc23)CC1` [Example E73, 4-[2-(Cyclopropylmethoxy)-5-methoxyphenyl]-6-methyl-N-[cis-4-(propionylamino)cyclohexyl]-5H-pyrrolo[3,2-d]pyrimidine-7-carboxamide], the IC50 at PDE5A1 is below 0.001 µM; at PDE4B1, 0.1 to 1 µM.
